Data on 20 compounds can be found in US10189839B2, “Tricyclic imidazole compounds as inhibitors of tryptophan hydroxylase” (ACTELION PHARMACEUTICALS LTD, priority 2013, dated 2019).

The first experiment has as its target T1, full length human TPH1 (Homo sapiens, UniProt P17752).
T1 construct: To generate the enzyme, full length human TPH1 is cloned into the plasmid pET20b(+); made in house; host or cells: E. coli
T1 sequence (P17752 1-444): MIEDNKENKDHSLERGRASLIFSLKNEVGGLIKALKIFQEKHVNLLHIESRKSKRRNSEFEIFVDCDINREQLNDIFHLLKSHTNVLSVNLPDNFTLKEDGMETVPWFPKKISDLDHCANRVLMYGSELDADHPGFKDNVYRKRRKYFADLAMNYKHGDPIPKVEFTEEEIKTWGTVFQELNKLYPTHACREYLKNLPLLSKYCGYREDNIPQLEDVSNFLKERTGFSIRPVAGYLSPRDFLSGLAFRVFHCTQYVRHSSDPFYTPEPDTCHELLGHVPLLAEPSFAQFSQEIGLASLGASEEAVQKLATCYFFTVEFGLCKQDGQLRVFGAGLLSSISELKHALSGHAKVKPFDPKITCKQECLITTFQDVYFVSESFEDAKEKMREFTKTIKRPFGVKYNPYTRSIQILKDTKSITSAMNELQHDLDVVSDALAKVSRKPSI
The experiment can be described thus: Biochemical in vitro assay using fluorescence readout (TPH1 enzyme activity). Conditions: Table 1, mean where determined several times. From the text:
Inhibitory activities on tryptophan hydroxylase 1 have been measured for each example compound using the following procedure:
Biochemical In Vitro Assay Using Fluorescence Readout
To generate the enzyme, full length human TPH1 is cloned into the plasmid pET20b(+) (Novagen) and expressed in E. coli. The bacterial cells are ruptured by sonication on ice and the lysate is cleared by centrifugation. The resulting protein in the pellet is re-extracted and TPH1 is purified from the obtained lysate by affinity chromatography using a pterin cosubstrate analog immobilized to the resin of the column. The protein is further purified by size exclusion chromatography to remove protein aggregates. The activity of TPH1 is determined by using a fluorescence assay. The enzyme activity assay is carried out at 15° C. with atmosphere oxygen for the duration of 60 minutes in a volume of 64 μl. The reaction is carried out in a 0.1M Tris-HCl buffer, adjusted to pH 7.6, containing 1 mM DTT, 0.2 mg/ml catalase, 100 μM (±)-6-methyl-5,6,7,8-tetrahydropterine dihydrochloride, 40 μM L-tryptophan, and 40-80 nM of TPH1. The reaction is started by bringing together L-tryptophan with all the other reaction substituents and stopped by quenching with perchloric acid (HClO4). The amount of 5-hydroxy-L-tryptophan produced during the enzymatic reaction is determined by fluorescence readout. Fluorescence, as determined at 540 nm when excited at 300 nm wavelength, increases proportionally to the 5-hydroxy-L-tryptophan formed. Compounds are prepared as 10 mM stock solution in DMSO, then diluted in 384-well plates using DMSO followed by a transfer of the dilutions into the assay plate. Fluorescence is measured for each well and the fluorescence at 540 nm wavelength is compared to the fluorescence of the vehicle in place of compound. Inhibitory activities of example compounds with respect to the TPH1 protein are determined by calculating the IC50 value (the concentration of compound needed to inhibit 50% of the enzyme activity). The calculated IC50 values may fluctuate depending on the daily biochemical assay performance. Fluctuations of this kind are known to those skilled in the art. In the case where IC50 values have been determined several times for the same compound, the mean is given.
Take `CN(C)c1ccc(OCC(=O)N2CCc3nc4n(c3C2c2ccc(Cl)cc2F)CCCC4)c(Cl)n1` (centres unmarked) [Example 1.1.21, 1-(1-(4-chloro-2-fluorophenyl)-3,4,6,7,8,9-hexahydroimidazo[1,2-a:5,4-c′]dipyridin-2(1H)-yl)-2-((2-chloro-6-(dimethylamino)pyridin-3-yl)oxy)ethan-1-one]: the IC50 – broadly, the concentration needed to halve the response being measured – is 13 nM.

`O=C(NC1CC1)c1ccc(OCC(=O)N2CCc3nc4n(c3C2c2ccc(Cl)cc2F)CCCC4)c(C2CC2)n1` (centres unmarked) [Example 1.1.22, 5-(2-(1-(4-chloro-2-fluorophenyl)-3,4,6,7,8,9-hexahydroimidazo[1,2-a:5,4-c′]dipyridin-2(1H)-yl)-2-oxoethoxy)-N,6-dicyclopropylpicolinamide] yielded an IC50 of 10 nM.

In the case of `CN(CC(F)(F)F)c1ccc(OCC(=O)N2CCc3nc4n(c3C2c2ccc(Cl)cc2F)CCCC4)c(Cl)n1` (centres unmarked) [Example 1.1.23, 1-(1-(4-chloro-2-fluorophenyl)-3,4,6,7,8,9-hexahydroimidazo[1,2-a:5,4-c′]dipyridin-2(1H)-yl)-2-((2-chloro-6-(methyl(2,2,2-trifluoroethyl)amino)pyridin-3-yl)oxy)ethan-1-one], the IC50 is 9 nM.

Compound `COCCN(C)c1ccc(OCC(=O)N2CCc3nc4n(c3C2c2ccc(Cl)cc2F)CCCC4)c(Cl)n1` (centres unmarked) [Example 1.1.24, 1-(1-(4-chloro-2-fluorophenyl)-3,4,6,7,8,9-hexahydroimidazo[1,2-a:5,4-c′]dipyridin-2(1H)-yl)-2-((2-chloro-6-((2-methoxyethyl)(methyl)amino)pyridin-3-yl)oxy)ethan-1-one] registered an IC50 of 62 nM.

For the compound `CN(C)C(=O)c1ccc(OC(C)(C)C(=O)N2CCc3nc4n(c3C2c2ccc(Cl)cc2F)CCCC4)c(Cl)n1` (centres unmarked) [Example 1.1.25, 6-chloro-5-((1-(1-(4-chloro-2-fluorophenyl)-3,4,6,7,8,9-hexahydroimidazo[1,2-a:5,4-c′]dipyridin-2(1H)-yl)-2-methyl-1-oxopropan-2-yl)oxy)-N,N-dimethylpicolinamide], the IC50 turned out to be 146 nM.

In turn, `CN(C)C(=O)c1ccc(OC2(C(=O)N3CCc4nc5n(c4C3c3ccc(Cl)cc3F)CCCC5)CC2)c(Cl)n1` (centres unmarked) [Example 1.1.26, 6-chloro-5-(1-(1-(4-chloro-2-fluorophenyl)-1,2,3,4,6,7,8,9-octahydroimidazo[1,2-a:5,4-c′]dipyridine-2-carbonyl)cyclopropoxy)-N,N-dimethylpicolinamide] gave an IC50 of 51 nM.

`CS(=O)(=O)c1ccc(OCC(=O)N2CCc3nc4n(c3C2c2ccc(Cl)cc2F)CCCC4)c(Cl)n1` (centres unmarked) [Example 1.1.28, 1-(1-(4-chloro-2-fluorophenyl)-3,4,6,7,8,9-hexahydroimidazo[1,2-a:5,4-c′]dipyridin-2(1H)-yl)-2-((2-chloro-6-(methylsulfonyl)pyridin-3-yl)oxy)ethan-1-one] showed an IC50 of 90 nM.

On to `CN(C)S(=O)(=O)c1ccc(OCC(=O)N2CCc3nc4n(c3C2c2ccc(Cl)cc2F)CCCC4)c(Cl)n1` (centres unmarked) [Example 1.1.29, 6-chloro-5-(2-(1-(4-chloro-2-fluorophenyl)-3,4,6,7,8,9-hexahydroimidazo[1,2-a:5,4-c′]dipyridin-2(1H)-yl)-2-oxoethoxy)-N,N-dimethylpyridine-2-sulfonamide], for which the IC50 turned out to be 129 nM.

As to `Cc1ccc(C2c3c(nc4n3CCCC4)CCN2C(=O)COc2ccc(NS(C)(=O)=O)nc2Cl)c(F)c1` (centres unmarked) [Example 1.2.1, N-(6-chloro-5-(2-(1-(2-fluoro-4-methylphenyl)-3,4,6,7,8,9-hexahydroimidazo[1,2-a:5,4-c′]dipyridin-2(1H)-yl)-2-oxoethoxy)pyridin-2-yl)methanesulfonamide], the IC50 came to 41 nM.

As for `Cc1ccc(C2c3c(nc4n3CCCC4)CCN2C(=O)COc2ccc(-c3ncco3)nc2Cl)c(F)c1` (centres unmarked) [Example 1.2.2, 2-((2-chloro-6-(oxazol-2-yl)pyridin-3-yl)oxy)-1-(1-(2-fluoro-4-methylphenyl)-3,4,6,7,8,9-hexahydroimi-dazo[1,2-a:5,4-c′]dipyridin-2(1H)-yl)ethanone], the IC50 was 11 nM.

In turn, `Cc1ccc(C2c3c(nc4n3CCCC4)CCN2C(=O)COc2ccc(C(=O)N(C)C3CC3)nc2Cl)c(F)c1` (centres unmarked) [Example 1.2.3, 6-chloro-N-cyclopropyl-5-(2-(1-(2-fluoro-4-methyl-phenyl)-3,4,6,7,8,9-hexahydroimidazo[1,2-a:5,4-c′]dipyridin-2(1H)-yl)-2-oxoethoxy)-N-methylpicolinamide] registered an IC50 of 22 nM.

As for `CS(=O)(=O)Nc1ccc(OCC(=O)N2CCc3nc4n(c3C2c2ncc(C3CC3)cc2F)CCCC4)c(Cl)n1` (centres unmarked) [Example 1.3.1, N-(6-chloro-5-(2-(1-(5-cyclopropyl-3-fluoropyridin-2-yl)-3,4,6,7,8,9-hexahydroimidazo[1,2-a:5,4-c′]dipyridin-2(1H)-yl)-2-oxoethoxy)pyridin-2-yl)methanesulfonamide], the half-inhibitory concentration (IC50) worked out at 63 nM.

As to `CCc1nc(C(=O)NC2CC2)ccc1OCC(=O)N1CCc2nc3n(c2C1c1ncc(C2CC2)cc1F)CCCC3` (centres unmarked) [Example 1.3.2, N-cyclopropyl-5-(2-(1-(5-cyclopropyl-3-fluoropyridin-2-yl)-3,4,6,7,8,9-hexahydroimidazo[1,2-a:5,4-c′]dipyridin-2(1H)-yl)-2-oxoethoxy)-6-ethylpicolinamide], the IC50 worked out at 7 nM.

As to `CCc1nc(C(=O)NC2CC2)ccc1OCC(=O)N1CCc2nc3n(c2[C@@H]1c1ncc(C2CC2)cc1F)CCCC3` [Example 1.3.3, (R)-N-cyclopropyl-5-(2-(1-(5-cyclopropyl-3-fluoropyridin-2-yl)-3,4,6,7,8,9-hexahydroimidazo[1,2-a:5,4-c′]dipyridin-2(1H)-yl)-2-oxoethoxy)-6-ethylpicolinamide], the IC50 turned out to be 7 nM.

`CN(C)C(=O)c1ccc(OCC(=O)N2CCc3nc4n(c3C2c2sc(C(=O)N(C)C)cc2F)CCCC4)c(Cl)n1` (centres unmarked) [Example 1.4.1, 6-chloro-5-(2-(1-(5-(dimethylcarbamoyl)-3-fluoro-thiophen-2-yl)-3,4,6,7,8,9-hexahydroimidazo[1,2-a:5,4-c′]dipyridin-2(1H)-yl)-2-oxoethoxy)-N,N-dimethyl-picolinamide] yielded an IC50 of 55 nM.

Take `CCc1nc(NS(C)(=O)=O)ccc1OCC(=O)N1CCc2nc3n(c2C1c1sc(C(=O)N(C)C)cc1F)CCCC3` (centres unmarked) [Example 1.4.2, 5-(2-(2-((2-ethyl-6-(methylsulfonamido)pyridin-3-yl)oxy)acetyl)-1,2,3,4,6,7,8,9-octahydroimidazo[1,2-a:5,4-c′]dipyridin-1-yl)-4-fluoro-N,N-dimethylthiophene-2-carboxamide]: the half-maximal inhibitory concentration (IC50) was determined as 38 nM.

Consider `CCOC(=O)c1csc(C2c3c(nc4n3CCCC4)CCN2C(=O)COc2ccc(NS(C)(=O)=O)nc2Cl)n1` (centres unmarked) [Example 1.5.1, Ethyl 2-(2-(2-((2-chloro-6-(methylsulfonamido)pyridin-3-yl)oxy)acetyl)-1,2,3,4,6,7,8,9-octahydroimidazo[1,2-a:5,4-c′]dipyridin-1-yl)thiazole-4-carboxylate], for which the IC50 is 558 nM.

Consider `Cc1cnc(C2c3c(nc4n3CCCC4)CCN2C(=O)COc2ccc(NS(C)(=O)=O)nc2Cl)c(F)c1` (centres unmarked) [Example 1.6.1, N-(6-chloro-5-(2-(1-(3-fluoro-5-methylpyridin-2-yl)-3,4,6,7,8,9-hexahydroimidazo[1,2-a:5,4-c′]dipyridin-2(1H)-yl)-2-oxoethoxy)pyridin-2-yl)methanesulfonamide], for which the IC50 is 58 nM.

As to `Cc1cnc(C2c3c(nc4n3CCCC4)CCN2C(=O)COc2ccc(-c3ncco3)nc2Cl)c(F)c1` (centres unmarked) [Example 1.6.2, 2-((2-chloro-6-(oxazol-2-yl)pyridin-3-yl)oxy)-1-(1-(3-fluoro-5-methylpyridin-2-yl)-3,4,6,7,8,9-hexahydroimidazo[1,2-a:5,4-c′]dipyridin-2(1H)-yl)ethanone], the midpoint of inhibition, the IC50, lay at 41 nM.

Staying with this experiment, now noted: Table 2.
On to `CN(CCO)c1ccc(OCC(=O)N2CCc3nc4n(c3C2c2ccc(Cl)cc2F)CCCC4)c(Cl)n1` (centres unmarked) [Example 1.1.27], for which the IC50 was determined as 15 nM.
